In publication PMC9259545, “Impact of poly-arginine peptides R18D and R18 on alteplase and tenecteplase thrombolysis in vitro, and neuroprotective stability to proteolysis” (Journal of Thrombosis and Thrombolysis, 2022):
Non-standard residues stand in square brackets, D forms with d. Residues, ends and D or L forms follow the SMILES beside them.

Legend:
[1] = biological target: T1, TNK (Homo sapiens, UniProt P00750, H332A/K331A/N152Q/R333A/R334A/T138N); assay: Halo clot thrombolysis assay, TNK thrombolysis of whole blood clots; assay type: biochemical; details: TNK 5 nM, 27.5% human plasma
T1 construct: purchased Boehringer Ingelheim 50 mg vial
T1 sequence (P00750 36-562 T138N/N152Q/K331A/H332A/R333A/R334A): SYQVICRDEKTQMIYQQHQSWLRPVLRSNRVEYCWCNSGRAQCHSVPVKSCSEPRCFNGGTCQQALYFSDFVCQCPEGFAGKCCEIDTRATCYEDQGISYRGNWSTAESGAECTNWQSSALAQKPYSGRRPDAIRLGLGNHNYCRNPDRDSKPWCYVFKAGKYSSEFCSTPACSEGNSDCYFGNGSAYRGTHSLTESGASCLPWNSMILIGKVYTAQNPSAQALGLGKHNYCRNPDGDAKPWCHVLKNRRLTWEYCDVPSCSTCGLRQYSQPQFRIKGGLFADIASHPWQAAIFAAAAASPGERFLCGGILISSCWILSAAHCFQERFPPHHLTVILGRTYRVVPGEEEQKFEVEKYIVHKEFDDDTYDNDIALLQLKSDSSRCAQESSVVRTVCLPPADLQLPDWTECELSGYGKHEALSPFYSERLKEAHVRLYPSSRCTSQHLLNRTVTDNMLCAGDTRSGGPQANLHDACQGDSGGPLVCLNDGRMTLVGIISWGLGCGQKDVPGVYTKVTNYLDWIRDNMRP
Procedure: (§1) We utilised a high throughput 96-well plate thrombolysis assay (“halo clot assay”) based on the procedure developed by Bonnard et al.. To reduce assay components the halo thrombus formation procedure was modified by replacing the original thrombotic mixture consisting of recombinant tissue factor and synthetic phospholipids reconstituted in 30 mM calcium, with thrombin, and reducing the pro-thrombotic volume (i.e., thrombin) from 5 to 3 µL and blood volume from 25 to 12 µL. Another modification to simplify clot formation consisted of adding the thrombin (3 µL; 500 nM in saline) to one side of the well and 12 µL of blood to the opposite side of well, before using a heat stretched Pasteur pipette with sealed end to mix the two liquids together using 4 to 5 circular motions around the edge of the well (halo clot). The original methodology involved adding the 5 μL of the clotting mixture to the edge of the well, and then using a micropipette to slowly release the 25 μL of blood to the edge of the well while at the same time maintaining a circular motion. Plates were incubated in a humidified 37 °C incubator for 1 h before use in the thrombolysis assay.
(§2) The thrombolysis assay involved adding 30 µL of Tris buffer (50 mM Tris–HCl, 100 mM NaCl, pH 7.4) with or without peptide followed by 55 µL Tris buffer containing tPA or TNK (5 nM final concentration) and 50% human plasma (final plasma concentration during thrombolysis 27.5%). The final concentration of peptide during thrombolysis ranged from 0.25 to 16 µM (note: an intravenous dose of R18D at 350 nmol/kg, which is likely to be neuroprotective achieves a Cmax of 0.7–0.9 µM in healthy male and female rats; unpublished observation). […] Following the addition of tPA or TNK into the wells, clot lysis was monitored over a 1-h period at 37 °C using a plate reader (Cytation5, BioTek, USA) by measuring absorbance at 510 nm every 1 min immediately after orbital shaking (205 rpm for 5 s). Controls consisted of wells with no thrombin (100% clot lysis; L100%) and wells with no tPA or TNK (0% clot lysis; L0%). At the 1-h time point, the percentage of thrombolysis (%T) in tPA or TNK treated samples (LTX) was calculated by transforming absorbance values based on the formula: % T = (LTX) − (L0%)/(L100%) − (L0%) × 100. In addition, during the 1-h period of clot lysis lag time and maximal activity (also known as maximum velocity or Vmax) of the thrombolysis reaction were calculated. The lag time is defined as the time interval between the first absorbance reading (time = 0) and the line of maximum slope of the thrombolysis reaction. The maximal activity is calculated from the maximum slope over the time course of the assay and reflects the capacity of an enzyme to catalyse a reaction (i.e., thrombolysis), with higher values representing higher catalytic activity (i.e., tPA/TNK induced plasmin thrombolysis).
For each thrombolysis assay, replicates for control wells (L0% and L100%) and tPA or TNK only treated wells consisted of n = 4–8. Replicates for tPA or TNK and peptide treated wells consisted of n = 4. For data analysis and graphical representations of the results, data from three independent thrombolytic assays were pooled. Studies consisted of R18D, R18 and NA-1 examined at the 0.5, 1, 2, 4, 8 or 16 µM concentrations performed concurrently on the same 96-well plate, in respective order. In addition, since R18D is known to be resistant to plasmin degradation and appeared to have the most impact on tPA or TNK thrombolysis, a separate set of three independent assays were performed for this peptide alone at concentrations of 0.25, 0.5, 1, 2, 4, 8 or 16 µM. Furthermore, the second dose study with R18D provided the opportunity to include a lower concentration (0.25 µM) of the peptide and to provide comparative data when only one peptide was examined in the thrombolysis assay per 96-well plate as opposed to examining the three peptides concurrently on the same plate. […]

[2] = in the order; 8 (NA-1), unpublished data (R18D); cited from earlier work
From the text: It is important to mention that the results obtained in this study are likely to overestimate any negative effects of R18D, R18 and NA-1 on tPA/TNK lag time and thrombolysis compared with what would occur clinically for several reasons. Firstly, positively charged peptides administered directly into the circulation would have a larger pool of negatively charged plasma proteins such as albumin to bind, and thus reduce any inhibitory electrostatic effects of the peptides on lag time and thrombolysis. In addition, the in vitro thrombolysis assay used in this study was performed in 27.5% plasma wh ...

[3] = tested on: tPA or TNK; assay type: biochemical, human; details: range over peptide concentrations 0.25-16 µM and both thrombolytics; 1-h assay
Procedure: as §1, §2
For each thrombolysis assay, replicates for control wells (L0% and L100%) and tPA or TNK only treated wells consisted of n = 4–8. Replicates for tPA or TNK and peptide treated wells consisted of n = 4. For data analysis and graphical representations of the results, data from three independent thrombolytic assays were pooled. Studies consisted of R18D, R18 and NA-1 examined at the 0.5, 1, 2, 4, 8 or 16 µM concentrations performed concurrently on the same 96-well plate, in respective order. […]

[4] = biological target: T2, tPA (Homo sapiens, UniProt P00750); assay: Neuroprotective proteolytic stability after pre-incubation with tPA (glutamic acid excitotoxicity model, MTS); assay type: in vitro ADME; details: 1 or 2 h or overnight (22-24 h)
T2 construct: purchased Boehringer Ingelheim, Germany 10 mg vial
T2 sequence (P00750 36-562): as the sequence (P00750 36-562 T138N/N152Q/K331A/H332A/R333A/R334A) above, with N103T, Q117N, A296K, A297H, A298R, A299R counted along it
Procedure: Neuronal cultures were maintained in CO2 incubator.
tPA (1000 µg/mL) or TNK (5000 µg/mL) resuspended in water (Baxter) were used to prepare 10 µg/mL (170 nM; note this is 34 times the concentration used in thrombolysis assay) stocks in MEM/2% B27 supplement (MEM/B27).
All data are presented as mean ± standard deviation (SD).

[5] = intravenous dose 350 nmol/kg, healthy male and female rats; ref unpublished observation; cited from earlier work
[6] = separate dose study, R18D alone, 0.25-16 µM

Question: Which results are given for `N=C(N)NCCC[C@@H](N)C(=O)N[C@H](CCCNC(=N)N)C(=O)N[C@H](CCCNC(=N)N)C(=O)N[C@H](CCCNC(=N)N)C(=O)N[C@H](CCCNC(=N)N)C(=O)N[C@H](CCCNC(=N)N)C(=O)N[C@H](CCCNC(=N)N)C(=O)N[C@H](CCCNC(=N)N)C(=O)N[C@H](CCCNC(=N)N)C(=O)N[C@H](CCCNC(=N)N)C(=O)N[C@H](CCCNC(=N)N)C(=O)N[C@H](CCCNC(=N)N)C(=O)N[C@H](CCCNC(=N)N)C(=O)N[C@H](CCCNC(=N)N)C(=O)N[C@H](CCCNC(=N)N)C(=O)N[C@H](CCCNC(=N)N)C(=O)N[C@H](CCCNC(=N)N)C(=O)N[C@H](CCCNC(=N)N)C(=O)O` [R18D] (H-[dR][dR][dR][dR][dR][dR][dR][dR][dR][dR][dR][dR][dR][dR][dR][dR][dR][dR]-OH)?
Answer: Effect on TNK thrombolysis maximal activity vs TNK control ([1]; concurrent study, 0.5-16 µM peptide): did not significantly impact TNK thrombolysis maximal activity; Increase in TNK lag time ([1]; peptide 4 µM, concurrent study, 37 °C): 6.64 min; Decrease in TNK thrombolysis ([1]; peptide 4 µM, concurrent study, 37 °C, 1 h, p = 0.022): 9.35%; Increase in TNK lag time ([1]; peptide 8 µM, concurrent study, 37 °C): 9.9 min; Decrease in TNK thrombolysis ([1]; peptide 8 µM, concurrent study, 37 °C, 1 h, p = 0.044): 8.71%; Increase in TNK lag time ([1]; peptide 16 µM, concurrent study, 37 °C): 8.76 min; Effect on TNK lag time vs TNK control [1, 6]: did not impact TNK lag time at any concentration; Effect on TNK thrombolysis maximal activity vs TNK control [1, 6]: did not significantly impact TNK thrombolysis maximal activity at any concentration; Effect on percentage TNK thrombolysis at 1 h vs TNK control ([1]; separate dose study, R18D alone, 0.25-16 µM, 37 °C, 1 h): did not inhibit TNK thrombolysis; In vivo peak plasma concentration [2]: 1 to 5 µM; Plasma half-life [2]: 5 to 15 min; Increase in lag time (time to the commencement of thrombolysis) [3]: 0 to 9.9 min; Resistance to degradation by tPA ([4]; inferred from retained neuroprotection, peptide 2 µM, tPA 170 nM): resistant to degradation; Neuroprotective efficacy after incubation with tPA ([4]; peptide 2 µM in MEM/B27 with tPA 10 µg/mL (170 nM), 37 °C CO2 incubator, then rat cortical neurons, glutamic acid 100 µM 5 min, MTS viability at 20-24 h, N = 4-8): a similar and a high level of neuroprotective efficacy; Cmax [5]: 700 to 900 nM
